In paper PMC7137270, “Determination of parecoxib and valdecoxib in rat plasma by UPLC-MS/MS and its application to pharmacokinetics studies” (BMC Pharmacology & Toxicology, 2020):
Values belong to the molecule of their own block, whether it stands above or below them.

Columns and labels:
[1] = Stability of analytes in rat plasma (short-term, long-term, freeze/thaw); assay type: in vitro ADME; conditions: n = 6; for Freeze/thaw (−20 °C to room temperature) RE: three cycles
Protocol: The stability of the samples (including QC and IS) in rat plasma was determined by placing samples (n = 6) in three settings. Of those settings, the short-term stability was determined via leaving the samples at room temperature for 24 h. For long-term stability evaluation, the samples went through 3 weeks of storage at − 20 °C before measurement. The stability of samples after freeze-thaw treatment was assessed by performing freeze/thaw cycles on each sample three times prior to analysis. The fresh samples were prepared as a negative control. The acceptable bias was considered great stability when it was within ±15%. […]

[2] = design: method as in PMID 11519767; conditions: control of acute pain, specific dose of PCX; cited from earlier work
[3] = Pharmacokinetic study in rats after sublingual vein administration of parecoxib; assay type: in vivo; conditions: male, Sprague Dawley, rat plasma, sublingual vein administration of 5 mg/kg PCX, n = 6; for MRT last: read-out: MRT(0-t); for MRT inf: read-out: MRT(0-∞)
Protocol: The average weight range of 200–220 g male Sprague Dawley (SD) was obtained from the laboratory animal center of the Wenzhou Medical University (Wenzhou, China, License No. SCXK [ZJ] 2005–0019). Rats stayed in cages and freely got food and water under a stable temperature range of 24–26 °C and a controllable 12 h light/dark cycle apparatus. Animal protocols were approved by the Institutional animal experimentation Committee of the Wenzhou Medical University. A total of 12 SD rats were separated into two isolated groups, including the experimental group (n = 6) and the control group (n = 6). Fasting was carried out for 12 h before assays, and only water was freely accessible. The rats were treated with […] PCX intravenously, which was equivalent to 56 mg for an individual of 70 kg human body weight (regular range in the clinic is from 40 to 80 mg). 0.3 ml of blood samples were collected and stabilized in heparinized tubes at each given time point (0, 0.083, 0.167, 0.25, 0.5, 0.75, 1, 2, 3, 4, 6, 8, 10, 12 and 24 h). The plasma samples were separated through centrifugation at 3000 r/min for 10 min and carefully collected the supernatant and stored at − 20 °C before analysis. All pharmacokinetic data were analyzed by the DAS (Drug and Statistics) software. All rats were sacrificed by CO2 inhalation.
In the clinic, the recommended dose of PCX was 40 mg per patient, i.m. or i.v., and the total daily dose was not more than 80 mg. In the present study, a dose of 5 mg/kg PCX was injected to rats by i.v., which was equivalent to 56 mg for an individual of 70 kg body weight (range of 40–80 mg). The UPLC-MS/MS has effectively monitored the pharmacokinetic changes after administration of […] PCX. Further, the pharmacokinetic parameters were figured out by using the DAS 3.0 software.

plasma proteins = conditions: cited from earlier work
[4] = design: method as in PMID 29843006; conditions: cited from earlier work

Long-term (−20 °C, 3 weeks) RE ([1]; 200 ng/mL): −1.3% | Short-term (room temperature, 24 h) RE ([1]; 200 ng/mL): 7.5% | Freeze/thaw (−20 °C to room temperature) RE ([1]; 200 ng/mL): 5.8%
Compound: Cc1ccc(-c2cc(C(F)(F)F)nn2-c2ccc(S(N)(=O)=O)cc2)cc1 [Celecoxib]

Long-term (−20 °C, 3 weeks) RE ([1]; 100 ng/mL): 14.2% | Short-term (room temperature, 24 h) RE ([1]; 100 ng/mL): 13.0% | Freeze/thaw (−20 °C to room temperature) RE ([1]; 100 ng/mL): 14.9% | Long-term (−20 °C, 3 weeks) RE ([1]; 800 ng/mL): 12.7% | Short-term (room temperature, 24 h) RE ([1]; 800 ng/mL): 10.2% | Freeze/thaw (−20 °C to room temperature) RE ([1]; 800 ng/mL): 14.2% | Long-term (−20 °C, 3 weeks) RE ([1]; 8000 ng/mL): 14.3% | Short-term (room temperature, 24 h) RE ([1]; 8000 ng/mL): −10.5% | Freeze/thaw (−20 °C to room temperature) RE ([1]; 8000 ng/mL): −7.9% | AUC(0-inf) [3]: 2110 ± 283 ng·h/mL | AUC(0-t) [3]: 2110 ± 282 ng·h/mL | Cmax [3]: 5070 ± 1210 ng/mL | Tmax [3]: 0.1 h | clearance [3]: 40 mL/min/kg | half-life [3]: 1.4 ± 0.5 h | MRT last [3]: 0.4 ± 0.1 h | MRT inf [3]: 0.4 ± 0.1 h
Compound: CCC(=O)NS(=O)(=O)c1ccc(-c2c(-c3ccccc3)noc2C)cc1 [Parecoxib]
onset of analgesia [2]: 7 to 14 min | time to peak analgesic effect [2]: ≤ 2 h

Long-term (−20 °C, 3 weeks) RE ([1]; 5 ng/mL): −1.4% | Short-term (room temperature, 24 h) RE ([1]; 5 ng/mL): −6.7% | Freeze/thaw (−20 °C to room temperature) RE ([1]; 5 ng/mL): 5.2% | Long-term (−20 °C, 3 weeks) RE ([1]; 40 ng/mL): 13.2% | Short-term (room temperature, 24 h) RE ([1]; 40 ng/mL): 12% | Freeze/thaw (−20 °C to room temperature) RE ([1]; 40 ng/mL): 14.2% | Long-term (−20 °C, 3 weeks) RE ([1]; 400 ng/mL): 3.2% | Short-term (room temperature, 24 h) RE ([1]; 400 ng/mL): 3.2% | Freeze/thaw (−20 °C to room temperature) RE ([1]; 400 ng/mL): 9.5% | AUC(0-inf) [3]: 4370 ± 1530 ng·h/mL | AUC(0-t) [3]: 4190 ± 1590 ng·h/mL | Cmax [3]: 701 ± 92.6 ng/mL | Tmax [3]: 0.8 ± 0.2 h | clearance [3]: 20 mL/min/kg | half-life [3]: 3.1 ± 1.1 h | MRT last [3]: 4.1 ± 1 h | MRT inf [3]: 4.8 ± 1.1 h
Compound: Cc1onc(-c2ccccc2)c1-c1ccc(S(N)(=O)=O)cc1 [Valdecoxib]
bound to plasma proteins (plasma proteins): 98% | fraction of VCX in the circulation metabolized to hydroxylated VCX [4]: approximately 10%
